The record followed here is ChEMBL document CHEMBL1201862, “PubChem BioAssay data set” (2004).

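Interpolation was linear, between the two tested concentrations surrounding the appropriate level; five concentrations were tested over 48 hours in 96-well plates. Abbreviation: GI50, concentration required for 50% inhibition of growth.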 Activity calls are given as the source filed them. Cut-off read from the data, not from the text of the source: active = GI50 up to about 1.1 µM and inactive = higher.

Holding throughout (experiment): NCI anticancer screen, dose series, 48 h
Test [1] has as its system SN12C.
Test [2] concerns IGROV-1.
Test [3] deals with LOX IMVI.
Test [4] deals with OVCAR-4.
In test [5] the test system is RPMI-8226.
The subject of test [6] is HCT-15.
The subject of test [7] is M14.
In test [8] the test system is HCC 2998.
Test [9] deals with SF-539.
Test [10] concerns UACC-62.
Test [11] deals with HL-60.
Test [12] concerns SF-295.
Test [13] has as its system SW-620.
In test [14] the test system is SNB-75.
Test [15] deals with SK-MEL-5.
In test [16] the test system is UACC-257.
Test [17] has as its system HOP-92.
Test [18] has as its system SNB-19.
Test [19] deals with SK-MEL-2.
In test [20] the test system is EKVX.

As for `CCC1=NC(C(F)(F)F)(C(F)(F)F)N=C(N2CCOCC2)O1`, the GI50 in test [1] is > 100 µM (inactive); in [2], > 100 µM (inactive); in test [3], > 100 µM (inactive); in [4] it was > 100 µM (inactive); in test [5], > 100 µM (inactive); in [6], over 100 µM. In addition, the GI50 in test [7], in test [8], in test [9], in test [10], in test [11] and in test [12] was > 100 µM (inactive) throughout. The GI50 in [13], in [14], in test [15], in test [16], in [17] and in test [18] was > 100 µM (inactive) throughout. Besides, the GI50 in test [19] and in test [20] was > 100 µM (inactive) each time.
Consider `CCOC(=O)c1csc(NC(=O)CN(C)C)n1`, for which the GI50 was > 100 µM (inactive) in [2]; > 100 µM (inactive) in [3]; > 100 µM (inactive) in test [4]; > 100 µM (inactive) in test [5]; over 100 µM in [6]; > 100 µM (inactive) in [7]. The GI50 in test [8], in test [9], in [10], in test [11], in [12] and in [13] was > 100 µM (inactive) in each case. The GI50 in test [14], in test [15], in test [16], in test [17], in [18] and in test [19] was > 100 µM (inactive) in each case. In [20], the GI50 was > 100 µM (inactive).
On to `O=c1n(CC2CO2)c2ccccc2n1CC1CS1` (centres undefined), for which the GI50 in test [1] is > 100 µM (inactive); in test [2] it was > 100 µM (inactive); in test [3], 71 µM (inactive); in test [4], > 100 µM (inactive); in test [5], 36.3 µM (inactive); in test [6], over 100 µM. The GI50 was > 100 µM (inactive) in test [7]; > 100 µM (inactive) in test [8]; > 100 µM (inactive) in test [9]; 49 µM (inactive) in [10]; 11.1 µM (inactive) in [11]; > 100 µM (inactive) in test [12]. The GI50 in [13], in test [17], in test [18], in test [19] and in test [20] was > 100 µM (inactive) in each case.
Regarding `C=C(C)C1CC2=C(O1)C(=O)c1ccccc1C2=O` (stereo not drawn) [DEHYDROISO-ALPHA-LAPACHONE], the GI50 in test [1] was 19.1 µM (inactive); in [2] it was 20 µM (inactive); in test [3] it was 9.18 µM (inactive); in test [4], 11.3 µM (inactive); in test [5] it was 15.1 µM (inactive); in test [6], 17.9 µM. Moreover, the GI50 in test [7] is 18.5 µM (inactive); in test [8], 19.1 µM (inactive); in [9], 18.5 µM (inactive); in test [10], 16.1 µM (inactive); in test [11], 3.38 µM (inactive); in test [13] it was 23.6 µM (inactive). Also, the GI50 is 17.6 µM (inactive) in test [14]; 14 µM (inactive) in [15]; 13.3 µM (inactive) in test [16]; 16.3 µM (inactive) in test [17]; 29.8 µM (inactive) in test [18]; 25.7 µM (inactive) in test [20].
